From patent US9834571B2, “Compounds for inhibiting cell proliferation in EGFR-driven cancers” (ARIAD Pharmaceuticals, Inc., priority 2012, dated 2017)
Where two headings read alike, the source gives them in different places.

What was measured:
[1] = target: human EGFR (native sequence) (Homo sapiens, UniProt P00533); experiment: Kinase inhibitory activity against human EGFR (native sequence); assay type: biochemical; conditions: 10 μM ATP, read-out: IC50 for kinase inhibition, EGFR
In short: (§1)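 Testing covers a ten-concentration range beginning at 3 μM, performed once per concentration at an ATP level of 10 μM.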

[2] = target: EGFR L858R/T790M (Homo sapiens, UniProt P00533, L858R/T790M); experiment: Kinase inhibitory activity against EGFR bearing the L858R/T790M double mutation; assay type: biochemical; conditions: 10 μM ATP, read-out: IC50 for kinase inhibition, EGFR L858R T790M
EGFR L858R/T790M, sequence (P00533 25-1210 T790M/L858R): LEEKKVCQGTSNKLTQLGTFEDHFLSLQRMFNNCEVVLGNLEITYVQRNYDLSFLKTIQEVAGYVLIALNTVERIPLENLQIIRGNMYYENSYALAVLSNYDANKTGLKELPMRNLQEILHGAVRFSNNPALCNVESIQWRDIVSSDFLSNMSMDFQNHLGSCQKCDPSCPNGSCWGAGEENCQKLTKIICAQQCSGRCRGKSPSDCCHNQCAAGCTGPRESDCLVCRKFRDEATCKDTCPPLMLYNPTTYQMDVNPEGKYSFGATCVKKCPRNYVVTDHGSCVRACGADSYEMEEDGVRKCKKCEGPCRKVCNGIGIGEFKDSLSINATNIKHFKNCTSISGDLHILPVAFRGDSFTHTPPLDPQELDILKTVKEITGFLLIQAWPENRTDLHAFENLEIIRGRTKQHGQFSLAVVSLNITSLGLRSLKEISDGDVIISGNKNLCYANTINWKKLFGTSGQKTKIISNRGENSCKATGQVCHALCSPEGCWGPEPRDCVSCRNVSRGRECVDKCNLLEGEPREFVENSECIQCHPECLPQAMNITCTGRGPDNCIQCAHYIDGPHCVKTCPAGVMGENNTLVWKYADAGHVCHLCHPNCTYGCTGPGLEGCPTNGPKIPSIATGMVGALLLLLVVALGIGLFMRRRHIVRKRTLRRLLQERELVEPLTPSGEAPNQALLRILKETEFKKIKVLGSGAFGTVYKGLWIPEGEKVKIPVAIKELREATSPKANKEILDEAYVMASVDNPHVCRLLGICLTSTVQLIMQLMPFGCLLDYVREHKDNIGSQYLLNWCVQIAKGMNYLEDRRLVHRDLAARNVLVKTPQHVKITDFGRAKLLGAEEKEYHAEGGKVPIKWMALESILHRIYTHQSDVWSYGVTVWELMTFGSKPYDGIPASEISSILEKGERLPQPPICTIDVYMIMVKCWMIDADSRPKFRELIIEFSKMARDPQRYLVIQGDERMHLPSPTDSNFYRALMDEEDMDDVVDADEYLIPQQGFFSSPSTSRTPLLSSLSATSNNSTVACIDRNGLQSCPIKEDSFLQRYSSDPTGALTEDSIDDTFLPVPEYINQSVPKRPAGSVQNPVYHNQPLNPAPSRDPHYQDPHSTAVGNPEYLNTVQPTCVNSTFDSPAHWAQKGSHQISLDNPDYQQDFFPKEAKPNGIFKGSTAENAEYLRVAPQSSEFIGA
In short: as §1

[3] = target: EGFR L858R (Homo sapiens, UniProt P00533, L858R); experiment: Kinase inhibitory activity against EGFR bearing the L858R mutation; assay type: biochemical; conditions: 10 μM ATP, read-out: IC50 for kinase inhibition, EGFR L858R
EGFR L858R, sequence (P00533 25-1210 L858R): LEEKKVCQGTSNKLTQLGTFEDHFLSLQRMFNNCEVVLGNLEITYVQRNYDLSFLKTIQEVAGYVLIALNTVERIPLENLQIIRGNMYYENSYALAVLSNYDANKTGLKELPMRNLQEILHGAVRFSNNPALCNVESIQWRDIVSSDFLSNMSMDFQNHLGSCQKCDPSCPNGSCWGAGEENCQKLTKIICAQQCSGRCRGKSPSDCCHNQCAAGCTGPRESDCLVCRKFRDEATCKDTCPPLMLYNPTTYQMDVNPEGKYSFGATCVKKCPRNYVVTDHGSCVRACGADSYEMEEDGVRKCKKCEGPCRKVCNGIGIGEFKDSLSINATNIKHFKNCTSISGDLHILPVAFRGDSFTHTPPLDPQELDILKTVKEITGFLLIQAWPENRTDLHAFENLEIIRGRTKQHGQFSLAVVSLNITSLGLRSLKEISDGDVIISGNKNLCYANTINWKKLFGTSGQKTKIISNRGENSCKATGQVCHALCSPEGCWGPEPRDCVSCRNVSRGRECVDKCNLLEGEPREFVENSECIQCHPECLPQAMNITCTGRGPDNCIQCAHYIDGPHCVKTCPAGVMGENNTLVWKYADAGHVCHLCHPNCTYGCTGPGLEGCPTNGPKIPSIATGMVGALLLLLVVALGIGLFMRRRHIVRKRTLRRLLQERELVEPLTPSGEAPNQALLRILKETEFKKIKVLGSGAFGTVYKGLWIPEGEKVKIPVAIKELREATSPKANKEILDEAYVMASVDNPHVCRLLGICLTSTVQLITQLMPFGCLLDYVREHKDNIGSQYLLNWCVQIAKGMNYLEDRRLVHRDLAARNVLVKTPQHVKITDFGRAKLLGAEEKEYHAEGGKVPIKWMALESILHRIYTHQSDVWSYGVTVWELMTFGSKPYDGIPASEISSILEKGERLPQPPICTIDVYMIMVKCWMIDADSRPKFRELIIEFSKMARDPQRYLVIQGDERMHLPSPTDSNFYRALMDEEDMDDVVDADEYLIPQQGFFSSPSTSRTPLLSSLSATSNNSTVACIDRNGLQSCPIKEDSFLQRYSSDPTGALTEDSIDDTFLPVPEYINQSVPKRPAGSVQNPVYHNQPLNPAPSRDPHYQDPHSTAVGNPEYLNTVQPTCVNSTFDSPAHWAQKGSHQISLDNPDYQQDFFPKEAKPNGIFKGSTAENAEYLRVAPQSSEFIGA
In short: as §1

[4] = tested on: BaF3 cells expressing wildtype EGFR; experiment: Antiproliferative activity (MTT) against control BaF3 cells expressing wildtype EGFR; assay type: cell-based; conditions: Mus musculus
In short: (§2)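 In this screen, MTT reduction reported on proliferation of BaF3 cells dependent on mutated EGFR and of matched BaF3 cells expressing wildtype receptor.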

[5] = target: T1, BaF3 cells expressing the target EGFR mutations (Homo sapiens, UniProt P00533, T790M, cells depend on it, form not given); experiment: Antiproliferative activity (MTT) against BaF3 cells expressing the target EGFR mutations; assay type: cell-based; conditions: BAF3 EGFR DEL T790M PURO POOL cells, read-out: IC50, BAF3 EGFR DEL T790M PURO POOL
T1 construct: IC50, BAF3 EGFR DEL T790M PURO POOL; other: BAF3 EGFR DEL T790M PURO POOL cells, MTT; other: BAF3 EGFR DEL T790M PURO POOL cells; MTT
T1 sequence (P00533 with tags, fused parts or gaps DEL746-750/T790M, form open): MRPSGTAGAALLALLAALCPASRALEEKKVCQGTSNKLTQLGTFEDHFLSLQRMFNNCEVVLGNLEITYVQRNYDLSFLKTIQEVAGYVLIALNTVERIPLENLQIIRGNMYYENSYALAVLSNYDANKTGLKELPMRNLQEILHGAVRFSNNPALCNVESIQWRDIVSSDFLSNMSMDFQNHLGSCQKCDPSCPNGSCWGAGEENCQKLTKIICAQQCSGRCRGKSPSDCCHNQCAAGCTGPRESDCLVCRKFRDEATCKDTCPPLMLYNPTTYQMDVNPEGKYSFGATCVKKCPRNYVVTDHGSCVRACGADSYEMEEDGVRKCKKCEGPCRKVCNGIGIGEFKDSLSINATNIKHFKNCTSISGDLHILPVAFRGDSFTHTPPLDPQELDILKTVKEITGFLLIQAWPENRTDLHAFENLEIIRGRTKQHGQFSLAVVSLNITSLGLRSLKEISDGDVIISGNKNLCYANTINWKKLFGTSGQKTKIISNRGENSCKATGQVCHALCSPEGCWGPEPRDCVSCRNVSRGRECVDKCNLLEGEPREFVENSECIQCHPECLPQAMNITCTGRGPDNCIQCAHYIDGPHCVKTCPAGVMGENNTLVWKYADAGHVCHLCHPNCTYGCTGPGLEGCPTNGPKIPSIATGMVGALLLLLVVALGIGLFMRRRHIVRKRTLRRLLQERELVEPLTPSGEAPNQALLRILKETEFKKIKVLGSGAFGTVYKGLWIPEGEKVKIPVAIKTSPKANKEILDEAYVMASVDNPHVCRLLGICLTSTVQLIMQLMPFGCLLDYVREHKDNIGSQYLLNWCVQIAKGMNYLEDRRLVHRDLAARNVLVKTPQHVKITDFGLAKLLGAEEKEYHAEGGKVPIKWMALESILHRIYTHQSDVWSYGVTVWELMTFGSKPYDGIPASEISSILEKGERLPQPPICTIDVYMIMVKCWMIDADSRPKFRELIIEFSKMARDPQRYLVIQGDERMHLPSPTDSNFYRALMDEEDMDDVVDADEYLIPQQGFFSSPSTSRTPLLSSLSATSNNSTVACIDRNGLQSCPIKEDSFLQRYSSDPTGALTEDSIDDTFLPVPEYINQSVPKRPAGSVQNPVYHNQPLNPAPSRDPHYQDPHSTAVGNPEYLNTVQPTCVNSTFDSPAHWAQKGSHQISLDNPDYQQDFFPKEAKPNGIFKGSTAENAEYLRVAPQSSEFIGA
In short: as §2

[6] = target: T2, BaF3 cells expressing the target EGFR mutations (Homo sapiens, UniProt P00533, T790M/L858R, cells depend on it); experiment: as above; assay type: cell-based; conditions: BAF3 EGFR L858R-T790M PURO POOL cells, read-out: IC50, BAF3 EGFR L858R-T790M PURO POOL
T2 construct: IC50, BAF3 EGFR L858R-T790M PURO POOL; other: BAF3 EGFR L858R-T790M PURO POOL cells, MTT; IC50, BAF3 EGFR L858R-T790M PURO POOL; other: BAF3 EGFR L858R-T790M PURO POOL cells; MTT
In short: as §2

[7] = 10 pt curves, 3 μM top concentration
[8] = EGFR L858R/T790M double mutation

human EGFR (native sequence), sequence (P00533 25-1210): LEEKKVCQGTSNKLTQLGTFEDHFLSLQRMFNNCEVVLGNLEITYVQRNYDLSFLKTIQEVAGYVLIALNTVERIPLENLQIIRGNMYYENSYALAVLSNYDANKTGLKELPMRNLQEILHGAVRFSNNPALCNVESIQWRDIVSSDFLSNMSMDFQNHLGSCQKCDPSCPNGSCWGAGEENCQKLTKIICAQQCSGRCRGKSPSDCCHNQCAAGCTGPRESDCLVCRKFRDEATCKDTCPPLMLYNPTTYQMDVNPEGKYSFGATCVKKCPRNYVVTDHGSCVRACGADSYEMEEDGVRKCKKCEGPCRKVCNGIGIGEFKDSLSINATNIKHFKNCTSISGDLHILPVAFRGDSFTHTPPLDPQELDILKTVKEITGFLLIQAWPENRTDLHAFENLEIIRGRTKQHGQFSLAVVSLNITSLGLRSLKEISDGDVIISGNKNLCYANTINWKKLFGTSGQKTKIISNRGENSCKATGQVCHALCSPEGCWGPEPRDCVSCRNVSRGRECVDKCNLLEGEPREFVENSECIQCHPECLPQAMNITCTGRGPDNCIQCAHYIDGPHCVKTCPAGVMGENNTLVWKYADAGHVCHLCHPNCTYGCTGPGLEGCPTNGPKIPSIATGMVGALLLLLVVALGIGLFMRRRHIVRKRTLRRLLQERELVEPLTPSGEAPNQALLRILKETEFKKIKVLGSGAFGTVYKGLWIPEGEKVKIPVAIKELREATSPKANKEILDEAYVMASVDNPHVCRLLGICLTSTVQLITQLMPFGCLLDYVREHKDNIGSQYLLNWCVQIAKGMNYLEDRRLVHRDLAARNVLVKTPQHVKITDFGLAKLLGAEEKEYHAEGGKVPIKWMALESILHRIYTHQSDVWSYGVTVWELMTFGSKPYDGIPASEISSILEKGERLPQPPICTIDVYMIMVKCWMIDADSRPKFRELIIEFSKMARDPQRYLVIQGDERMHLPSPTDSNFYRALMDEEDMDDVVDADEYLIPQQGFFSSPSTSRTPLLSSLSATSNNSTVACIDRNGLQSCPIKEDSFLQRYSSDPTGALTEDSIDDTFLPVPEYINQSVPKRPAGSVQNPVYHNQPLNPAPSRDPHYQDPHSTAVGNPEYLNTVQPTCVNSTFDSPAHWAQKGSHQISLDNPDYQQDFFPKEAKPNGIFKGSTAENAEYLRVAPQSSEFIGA

SMILES | IC50 [1, 7] | IC50 [2, 7] | IC50 [3, 7] | GI50 [5] | GI50 [6] | IC50 ([1]; human EGFR native sequence) | IC50 [2, 8] | IC50 ([3]; EGFR L858R) | IC50 ([4]; BAF3 parental cells) | IC50 ([4]; BAF3 PARENTAL cells (control))
C=CC(=O)Nc1cc(Nc2ncc(Cl)c(Nc3ccccc3P(C)(C)=O)n2)c(OC)cc1N1CCC(N2CCN(CCO)CC2)C1 (stereo not drawn) [Example 40, N-(5-((5-chloro-4-((2-(dimethylphosphoryl)phenyl)amino)pyrimidin-2-yl)amino)-2-(3-(4-(2-hydroxyethyl)piperazin-1-yl)pyrrolidin-1-yl)-4-methoxyphenyl)acrylamide] |  |  |  | ≥ 250 nM | ≥ 250 nM | < 50 nM | < 50 nM | < 50 nM |  | ≥ 250 nM
C=C(CN1CCC(N2CCOCC2)CC1)C(=O)Nc1ccc(OC)c(Nc2ncc(Cl)c(Nc3ccccc3P(C)(C)=O)n2)c1 [Example 51, N-(3-((5-chloro-4-((2-(dimethylphosphoryl)phenyl)amino)pyrimidin-2-yl)amino)-4-methoxyphenyl)-2-((4-morpholinopiperidin-1-yl)methyl)acrylamide] |  |  |  | < 50 nM | < 50 nM | < 50 nM | < 50 nM | < 50 nM |  | ≥ 250 nM
C=CC(=O)Nc1cc(Nc2ncc(Cl)c(Nc3ccccc3P(C)(C)=O)n2)c(OC)cc1C#CC(C)(C)N(C)C [Example 155, N-(5-((5-chloro-4-((2-(dimethylphosphoryl)phenyl)amino)pyrimidin-2-yl)amino)-2-(3-(dimethylamino)-3-methylbut-1-yn-1-yl)-4-methoxyphenyl)acrylamide] | < 50 nM | < 50 nM | < 50 nM | < 50 nM | < 50 nM |  |  |  | ≥ 250 nM | 
C=C(F)C(=O)Nc1ccc(OC)c(Nc2ncc(Cl)c(Nc3ccccc3P(C)(C)=O)n2)c1 [Example 77, N-(3-((5-chloro-4-((2-(dimethylphosphoryl)phenyl)amino)pyrimidin-2-yl)amino)-4-methoxyphenyl)-2-fluoroacrylamide] |  |  |  | < 50 nM | 50 to 100 nM | ≥ 250 nM | 50 to 100 nM | < 50 nM |  | ≥ 250 nM
COc1ccc(NC(=O)CF)cc1Nc1ncc(Cl)c(Nc2ccccc2P(C)(C)=O)n1 [Example 147, N-(3-((5-chloro-4-((2-(dimethylphosphoryl)phenyl)amino)pyrimidin-2-yl)amino)-4-methoxyphenyl)-2-fluoroacetamide] | ≥ 250 nM | 101 to 250 nM | 50 to 100 nM | ≥ 250 nM | ≥ 250 nM |  |  |  | ≥ 250 nM | 
CCOC(=O)/C=C/C(=O)Nc1ccc(OC)c(Nc2ncc(Cl)c(Nc3ccccc3P(C)(C)=O)n2)c1 [Example 75, (E)-ethyl 4-((3-((5-chloro-4-((2-(dimethylphosphoryl)phenyl)amino)pyrimidin-2-yl)amino)-4-methoxyphenyl)amino)-4-oxobut-2-enoate] |  |  |  | < 50 nM | < 50 nM | < 50 nM | < 50 nM | < 50 nM |  | ≥ 250 nM
C=C(CN1CCN(C(C)C)CC1)C(=O)Nc1ccc(OC)c(Nc2ncc(Cl)c(Nc3ccccc3P(C)(C)=O)n2)c1 [Example 50, N-(3-((5-chloro-4-((2-(dimethylphosphoryl)phenyl)amino)pyrimidin-2-yl)amino)-4-methoxyphenyl)-2-((4-isopropylpiperazin-1-yl)methyl)acrylamide] |  |  |  | < 50 nM | < 50 nM | 50 to 100 nM | < 50 nM | < 50 nM |  | ≥ 250 nM
C=CC(=O)Nc1cc(Nc2ncc(Cl)c(Nc3ccccc3P(C)(C)=O)n2)c(OC)cc1OC(CF)CN(CC)CC (stereo not drawn) [Example 121, N-(5-((5-chloro-4-((2-(dimethylphosphoryl)phenyl)amino)pyrimidin-2-yl)amino)-2-((1-(diethylamino)-3-fluoropropan-2-yl)oxy)-4-methoxyphenyl)acrylamide] | < 50 nM | < 50 nM | < 50 nM | < 50 nM | < 50 nM |  |  |  | ≥ 250 nM | 
C=CC(=O)Nc1ccc(OC)c(Nc2ncc(Cl)c(Nc3cnccc3P(C)(C)=O)n2)c1 [Example 164, N-(3-((5-chloro-4-((4-(dimethylphosphoryl)pyridin-3-yl)amino)pyrimidin-2-yl)amino)-4-methoxyphenyl)acrylamide] | ≥ 250 nM | < 50 nM | < 50 nM | 101 to 250 nM | ≥ 250 nM |  |  |  | ≥ 250 nM | 
CC#CC(=O)Nc1cc(Nc2ncc(Cl)c(Nc3ccccc3P(C)(C)=O)n2)c(OC)cc1OCC1CCOCC1 [Example 102, N-(5-((5-chloro-4-((2-(dimethylphosphoryl)phenyl)amino)pyrimidin-2-yl)amino)-4-methoxy-2-((tetrahydro-2H-pyran-4-yl)methoxy)phenyl)but-2-ynamide] |  |  |  | < 50 nM | 50 to 100 nM | ≥ 250 nM | ≥ 250 nM | 101 to 250 nM |  | ≥ 250 nM
C=CC(=O)Nc1cc(Nc2ncc(Cl)c(Nc3ccccc3P(C)(C)=O)n2)c(OC)cc1OC1COC1 [Example 9, N-(5-((5-chloro-4-((2-(dimethylphosphoryl)phenyl)amino)pyrimidin-2-yl)amino)-4-methoxy-2-(oxetan-3-yloxy)phenyl)acrylamide] |  |  |  | < 50 nM | 50 to 100 nM | ≥ 250 nM | < 50 nM | < 50 nM |  | ≥ 250 nM
COc1ccc(NC(=O)/C=C/C(=O)N2CCN(C)CC2)cc1Nc1ncc(Cl)c(Nc2ccccc2P(C)(C)=O)n1 [Example 59, (E)—N-(3-((5-chloro-4-((2-(dimethylphosphoryl)phenyl)amino)pyrimidin-2-yl)amino)-4-methoxyphenyl)-4-(4-methylpiperazin-1-yl)-4-oxobut-2-enamide] |  |  |  | 101 to 250 nM | ≥ 250 nM | < 50 nM | < 50 nM | < 50 nM |  | ≥ 250 nM

Second part, led by results:

IC50 [1, 7] | IC50 [2, 7] | IC50 [3, 7] | GI50 [5] | GI50 [6] | IC50 ([1]; human EGFR native sequence) | IC50 [2, 8] | IC50 ([3]; EGFR L858R) | SMILES | IC50 ([4]; BAF3 parental cells) | IC50 ([4]; BAF3 PARENTAL cells (control))
101 to 250 nM | < 50 nM | < 50 nM | < 50 nM | < 50 nM |  |  |  | C=C(C)C(=O)Nc1cc(Nc2ncc(Cl)c(Nc3ccccc3P(C)(C)=O)n2)c(OC)cc1N1CC[C@@H](N(C)C)C1 (racemic) [Example 113, rac-(R)-N-(5-((5-chloro-4-((2-(dimethylphosphoryl)phenyl)amino)pyrimidin-2-yl)amino)-2-(3-(dimethylamino)pyrrolidin-1-yl)-4-methoxyphenyl)methacrylamide] | ≥ 250 nM | 
< 50 nM | < 50 nM | < 50 nM | < 50 nM | < 50 nM |  |  |  | COc1cc(N2CCOCC2)c(NC(=O)C#CCN(C)C)cc1Nc1ncc(Cl)c(Nc2ccccc2P(C)(C)=O)n1 [Example 104, N-(5-((5-chloro-4-((2-(dimethylphosphoryl)phenyl)amino)pyrimidin-2-yl)amino)-4-methoxy-2-morpholinophenyl)-4-(dimethylamino)but-2-ynamide] | ≥ 250 nM | 
 |  |  | 50 to 100 nM | 101 to 250 nM | < 50 nM | < 50 nM | < 50 nM | C=CC(=O)Nc1cc(Nc2ncc(Cl)c(Nc3ccccc3P(C)(C)=O)n2)c(OC)cc1N1CCC(O)C1 (stereo not drawn) [Example 32, N-(5-((5-chloro-4-((2-(dimethylphosphoryl)phenyl)amino)pyrimidin-2-yl)amino)-2-(3-hydroxypyrrolidin-1-yl)-4-methoxyphenyl)acrylamide] |  | ≥ 250 nM
 |  |  | < 50 nM | < 50 nM | < 50 nM | < 50 nM | < 50 nM | C=CC(=O)Nc1cc(Nc2ncc(Cl)c(Nc3ccccc3P(C)(C)=O)n2)c(OC)cc1N1CCCC(N(C)C)C1 (stereo not drawn) [Example 30, N-(5-((5-chloro-4-((2-(dimethylphosphoryl)phenyl)amino)pyrimidin-2-yl)amino)-2-(3-(dimethylamino)piperidin-1-yl)-4-methoxyphenyl)acrylamide] |  | ≥ 250 nM
< 50 nM | < 50 nM | < 50 nM | < 50 nM | < 50 nM |  |  |  | C=CC(=O)Nc1cc(Nc2ncc(Cl)c(Nc3ccccc3P(C)(C)=O)n2)c(OC)cc1C [Example 133, N-(5-((5-chloro-4-((2-(dimethylphosphoryl)phenyl)amino)pyrimidin-2-yl)amino)-4-methoxy-2-methylphenyl)acrylamide] | ≥ 250 nM | 
